According to ChEMBL document CHEMBL1142956, “Small molecule inhibitors of histone arginine methyltransferases: homology modeling, molecular docking, binding mode analysis, and biological evaluations” (J Med Chem, 2007):

Key:
RmtA = RmtA (Emericella nidulans, UniProt Q5VLE3); assay: Inhibition of Aspergillus nidulans recombinant GST-RmtA expressed in BL21 cells
[1] = biological target: Protein arginine N-methyltransferase 1 (Homo sapiens, UniProt Q99873); assay: Inhibition of human recombinant GST-PRMT1 expressed in BL21 cells

O=C(Nc1ccc2c(O)cc(S(=O)(=O)O)cc2c1)Nc1ccc2c(O)cc(S(=O)(=O)O)cc2c1
IC50 (RmtA): 88 µM

CC1=CC(=O)C(C(C)C)=C/C1=C(/c1cc(C(C)C)c(O)cc1C)c1ccccc1C(=O)O
IC50 (RmtA): > 217 µM
IC50 [1]: > 217 µM

O=C(O)c1ccccc1-c1c2cc(Br)c(=O)c(Br)c-2oc2c(Br)c(O)c(Br)cc12
IC50 (RmtA): 0.18 µM
IC50 [1]: 1.4 µM

O=c1cc2oc3cc(O)c(O)cc3c(-c3ccccc3)c-2cc1O
IC50 (RmtA): 160 µM

O=C1NS(=O)(=O)c2ccccc21 [SACCHARIN]
IC50 (RmtA): > 510 µM
IC50 [1]: > 510 µM

O=C1NC(=O)C(=Nn2c(=O)[nH]c(=O)[nH]c2=O)C(=O)N1
IC50 (RmtA): > 164 µM
IC50 [1]: > 164 µM

CN(C)c1ccc(/N=N/c2ccccc2C(=O)O)cc1
IC50 (RmtA): 2100 µM

Cc1cc(C(=C2C=CC(=N)C=C2)c2ccc(N)cc2)ccc1N [FUCHSIN, BASIC]
IC50 (RmtA; bl21): 515 µM

O=[N+]([O-])c1ccc2c(/N=N/c3cccc4ccccc34)c(O)cc(S(=O)(=O)O)c2c1
IC50 (RmtA): 103 µM

O=C1OC2(c3ccc(O)cc3Oc3cc(O)ccc32)c2ccccc21 [FLUORESCEIN]
IC50 (RmtA): 123 µM

O=C(O)c1ccc(Nc2nc(Cl)nc(Cl)n2)cc1-c1c2ccc(=O)cc-2oc2cc(O)ccc12
IC50 (RmtA): 73 µM

O=C1c2ccccc2C(=O)c2c1ccc(O)c2O [ATHRAQUINONES A]
IC50 (RmtA): 1220 µM

O=C1C=CC(=C(c2ccc(O)cc2)c2ccccc2C(=O)O)C=C1
IC50 (RmtA): 296 µM
IC50 [1]: 885 µM

Nc1c(Br)cc(C(=O)O)c(-c2c3cc(Br)c(=O)c(Br)c-3oc3c(Br)c(O)c(Br)cc23)c1Br
IC50 (RmtA): 22.3 µM
IC50 [1]: 4.8 µM

Nc1ccc(C(=O)O)c(-c2c3ccc(=O)cc-3oc3cc(O)ccc23)c1
IC50 (RmtA): 710 µM

Nc1cc(S(=O)(=O)O)cc2cc(S(=O)(=O)O)cc(O)c12
IC50 (RmtA): 220 µM

O=S(=O)(O)c1cc(O)c2ccc(NC(=S)Nc3ccccc3)cc2c1
IC50 (RmtA): 1360 µM

O=C(O)c1ccc(Nc2nc(Cl)nc(Cl)n2)cc1
IC50 (RmtA): 406 µM

O=C1C=CC(=C(c2ccc(O)cc2)c2ccccc2S(=O)(=O)O)C=C1
IC50 (RmtA): > 263 µM

Cc1ccc(C(=O)Nc2ccc(S(=O)(=O)O)c3cc(S(=O)(=O)O)cc(S(=O)(=O)O)c23)cc1NC(=O)c1cccc(NC(=O)Nc2cccc(C(=O)Nc3cc(C(=O)Nc4ccc(S(=O)(=O)O)c5cc(S(=O)(=O)O)cc(S(=O)(=O)O)c45)ccc3C)c2)c1 [SURAMIN]
IC50 (RmtA): 5.9 µM
IC50 [1]: 18.1 µM

COc1cc(/C=C/C(=O)CC(=O)/C=C/c2ccc(O)c(OC)c2)ccc1O [CURCUMIN]
IC50 (RmtA): 1100 µM

CN(C)c1ccc(/N=N/c2ccc(S(=O)(=O)O)cc2)cc1
IC50 (RmtA): 490 µM

Nc1ccc2c(O)cc(S(=O)(=O)O)cc2c1
IC50 (RmtA): 590 µM

CC1=C(CN(CC(=O)O)CC(=O)O)C(=O)C(C(C)C)=C/C1=C(\c1ccccc1S(=O)(=O)O)c1cc(C(C)C)c(O)c(CN(CC(=O)O)CC(=O)O)c1C
IC50 (RmtA): > 34 µM
IC50 [1]: > 34 µM

O=C(Nc1ccccc1)Nc1ccc2c(O)cc(S(=O)(=O)O)cc2c1
IC50 (RmtA): 1080 µM
